These results are taken from ChEMBL document CHEMBL1201862, “PubChem BioAssay data set” (2004).

Experiment in all cases: inhibition of tumour cell growth, NCI panel, 48 h
The test system of assay [1] is 786-0.
The subject of assay [2] is A549.
Assay [3] relates to ACHN.
Assay [4] concerns COLO 205.
Assay [5] deals with DMS-273.
Assay [6] has as its system HCT-116.
The subject of assay [7] is KM12.
In assay [8] the test system is Malme-3M.
In assay [9] the test system is NCI-H23.
In assay [10] the test system is OVCAR-3.
The subject of assay [11] is RPMI-8226.
For assay [12], the system named is SK-MEL-28.
Assay [13] relates to SNB-78.
Assay [14] concerns TK-10.
Assay [15] concerns NCI-H226.
The test system of assay [16] is UO-31.

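96-well plates; 48 h exposure; 5 concentrations. Endpoints by linear interpolation between flanking doses. Not reached: highest tested concentration assigned. The concentration for 50% growth inhibition is given as GI50.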 Calls of active or inactive are those of the source. Rule as the data show it: active = GI50 up to about 1.1 µM and inactive = higher.

On to `O=c1cc(/C=C/c2ccccc2)c2ccc(O/C(=C\c3ccccc3)c3nc4ccccc4c(=O)o3)cc2o1`, for which the GI50 is 44.3 µM (inactive) in assay [1]; 30.4 µM (inactive) in assay [2]; 18.5 µM (inactive) in [3]; 22.2 µM (inactive) in assay [4]; 23 µM (inactive) in [5]; 14.2 µM (inactive) in assay [6]. Also, the GI50 is 15.7 µM (inactive) in assay [7]; 31.3 µM (inactive) in assay [8]; 10.6 µM (inactive) in assay [9]; 15 µM (inactive) in [10]; 4.76 µM (inactive) in assay [11]; 13.8 µM (inactive) in assay [12]. For the same molecule, the GI50 in assay [13] is 19.5 µM (inactive); in assay [14], 51.4 µM (inactive).
In the case of `CC(=O)OCC1OC(n2c(-c3ccc(C)cc3)cc(-c3ccccc3)c(C#N)c2=O)C(OC(C)=O)C(OC(C)=O)C1OC(C)=O` (stereo not drawn), the GI50 in assay [1], in [2], in assay [3], in assay [4], in assay [6] and in [7] was > 100 µM (inactive) throughout. Further, the GI50 in [8] is > 100 µM (inactive); in [15], > 100 µM (inactive); in assay [9], 60.7 µM (inactive); in assay [10], > 100 µM (inactive); in assay [11], 67.1 µM (inactive); in [12], > 100 µM (inactive). The GI50 in assay [13], in assay [14] and in [16] was > 100 µM (inactive) each time.
Regarding `Cc1ccc(S(=O)(=O)NNC(=O)c2sc(-c3nc(C)c(C(=O)NNS(=O)(=O)c4ccc(C)cc4)s3)nc2C)cc1`, the GI50 in [1] was 69.7 µM (inactive); in assay [2] it was > 100 µM (inactive); in assay [3], 97.9 µM (inactive); in [4], > 100 µM (inactive); in assay [6], 84.5 µM (inactive); in assay [7] it was > 100 µM (inactive). Further, the GI50 in assay [8] is > 100 µM (inactive); in assay [15], 50.7 µM (inactive); in assay [9] it was > 100 µM (inactive); in assay [10], > 100 µM (inactive); in assay [11], 45.3 µM (inactive); in assay [12], > 100 µM (inactive). Further, the GI50 in assay [13] was > 100 µM (inactive); in assay [14] it was > 100 µM (inactive); in assay [16] it was 28.8 µM (inactive).
Take `COC(=O)[C@]1(C)C(OC)=CC(=O)C2C1[C@H]1CCC[C@@H]21` (stereo partly drawn): the GI50 in assay [1], in assay [2], in assay [3], in [4], in assay [6] and in assay [7] was > 100 µM (inactive) throughout. For the same molecule, the GI50 in assay [8], in [15], in assay [9], in [10], in assay [11] and in [12] was > 100 µM (inactive) throughout. Moreover, the GI50 in [13], in [14] and in assay [16] was > 100 µM (inactive) each time.
For the molecule `CCN(CC)CCNc1ccc2ncn3c4ccccc4c(=O)c1c23`, the GI50 in [1] is 3.43 µM (inactive); in [2], 2.85 µM (inactive); in [3], 2.24 µM (inactive); in [4], 1.87 µM (inactive); in assay [6], 0.916 µM (active); in assay [7] it was 5.2 µM (inactive). In addition, the GI50 in [8] was 3.63 µM (inactive); in assay [15], 2.18 µM (inactive); in assay [9], 7.06 µM (inactive); in [10] it was 12.8 µM (inactive); in [11], 4.59 µM (inactive); in assay [12], 4.12 µM (inactive). The GI50 in assay [13] was 3.03 µM (inactive); in assay [14], 7.41 µM (inactive); in assay [16], 2.08 µM (inactive).
`Brc1ccc2c(c1)C1C(CO2)C(c2ccccc2)=NN1c1ccccc1` (stereo not drawn): the GI50 in assay [1], in assay [2], in assay [3], in assay [4], in assay [5] and in [6] was > 100 µM (inactive) throughout. In addition, the GI50 in [7] was > 100 µM (inactive); in assay [8] it was > 100 µM (inactive); in [9] it was > 100 µM (inactive); in assay [10], > 100 µM (inactive); in assay [11], 77.6 µM (inactive); in [12], > 100 µM (inactive). Besides, the GI50 in assay [13], in [14] and in assay [16] was > 100 µM (inactive) in each case.
`COC(=O)CCC(=O)Nc1cc(Cl)ccc1Cl`: the GI50 in [1], in [2], in assay [3], in assay [6], in assay [7] and in assay [8] was > 100 µM (inactive) each time. Besides, the GI50 in assay [15], in assay [9], in assay [10], in assay [11], in [12] and in assay [13] was > 100 µM (inactive) in each case. In addition, the GI50 is > 10 µM (inactive) in assay [14] and > 100 µM (inactive) in [16].
As for `CC1c2c(Cl)nc3ccccc3c2Oc2c1c(Cl)nc1ccccc21`, the GI50 was 49.1 µM (inactive) in assay [1]; 68.4 µM (inactive) in [2]; 51.5 µM (inactive) in [3]; > 100 µM (inactive) in assay [4]; 53.2 µM (inactive) in [5]; 74.6 µM (inactive) in [6]. Further, the GI50 is > 100 µM (inactive) in assay [7]; > 100 µM (inactive) in assay [8]; > 100 µM (inactive) in assay [9]; 81.8 µM (inactive) in assay [10]; 32.8 µM (inactive) in assay [11]; > 100 µM (inactive) in [12]. For the same molecule, the GI50 in assay [13] was > 100 µM (inactive); in [14], 47.3 µM (inactive); in [16], 65 µM (inactive).
In the case of `C[C@]12CC[C@H](OC3CCCCO3)CC1=CC[C@@H]1C2CC[C@]2(C)/C(=N/O)CCC12` (stereo partly drawn), the GI50 in assay [1] was 20.4 µM (inactive); in assay [2], 18.5 µM (inactive); in [3], 18.2 µM (inactive); in [4], > 10 µM (inactive); in assay [5] it was 17.5 µM (inactive); in assay [6] it was 16.1 µM (inactive). For the same molecule, the GI50 was 15.6 µM (inactive) in assay [7]; 17.9 µM (inactive) in assay [8]; 19.9 µM (inactive) in assay [9]; 17 µM (inactive) in assay [10]; 10.6 µM (inactive) in assay [11]; 21.3 µM (inactive) in assay [12]. In addition, the GI50 in assay [13] is 20.7 µM (inactive); in assay [14], 30.5 µM (inactive); in assay [16], 39.1 µM (inactive).
